Some results are limits rather than exact numbers.

The IC50 is the concentration that inhibits the measured activity by half.

The target of one experiment is T1, ERα (Homo sapiens, UniProt P03372).
T1 sequence (P03372 1-595): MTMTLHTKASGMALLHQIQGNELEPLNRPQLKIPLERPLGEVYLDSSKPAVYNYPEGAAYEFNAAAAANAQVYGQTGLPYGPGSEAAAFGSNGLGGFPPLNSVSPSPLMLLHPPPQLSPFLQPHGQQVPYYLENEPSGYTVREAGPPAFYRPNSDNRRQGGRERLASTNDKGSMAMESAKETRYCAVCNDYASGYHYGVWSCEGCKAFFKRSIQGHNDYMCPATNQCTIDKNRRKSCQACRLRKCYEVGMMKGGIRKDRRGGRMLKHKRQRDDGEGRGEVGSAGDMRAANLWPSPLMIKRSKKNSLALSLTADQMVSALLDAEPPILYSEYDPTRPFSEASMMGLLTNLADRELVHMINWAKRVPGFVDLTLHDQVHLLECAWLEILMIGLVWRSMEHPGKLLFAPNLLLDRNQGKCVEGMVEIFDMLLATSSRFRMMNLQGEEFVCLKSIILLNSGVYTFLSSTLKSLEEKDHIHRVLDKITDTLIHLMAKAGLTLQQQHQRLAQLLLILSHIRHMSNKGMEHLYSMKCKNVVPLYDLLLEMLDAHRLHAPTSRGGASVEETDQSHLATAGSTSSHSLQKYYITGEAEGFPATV
As to the kind of experiment: ERE luciferase reporter gene assay in T47D-KBluc cells (target engagement). The format is cell-based. More on the design: T47D human breast cancer cells stably transfected with estrogen responsive element/promoter/luciferase reporter gene; host or cells: T47D-KBluc cells. To be noted: 10% FBS, 24 hours, Table 1 cereblon centric PROTACs, read-out: ER-α Luciferase IC50. The protocol: Chimeric molecules were assessed for target engagement in T47D cells using the commercial kit of ERE luciferase reporter gene assay. In the assay, 10% FBS was included and estrogen level was measured to be 10 pM.
ERE Luciferase Assay for Compounds in Table 1-3.
T47D-KBluc cells (ATCC #CRL_2865, T47D human breast cancer cells stably transfected with estrogen responsive element/promoter/luciferase reporter gene) were seeded into 96-well white opaque plates in RPMI growth medium supplemented with 10% fetal bovine serum and allowed to adhere overnight in a 37° C. humidified incubator. The following day, cells were treated with PROTACs in a 12-point concentration curve (top final concentration of 300 nM with subsequent concentrations being 3-fold less with 2 pM being the lowest concentration in the assay). Each PROTAC was tested independently in two experiments on 96-well plates. After 24 hours, media was removed and lysis buffer was added to the wells. Following lysis, Bright-Glo™ Luciferase Assay Substrate (Prornega, Madison Wis.) was added and the luciferase activity was measured using a Cytation 3 plate reader (TioTek™, Winooski, Vt.). Each compound was assayed in duplicates and the activity was calculated as IC50 using GraphPad Prism software (San Diego, Calif.).
A general note: Reporter assays use an easily measured gene product as a stand-in for the process of interest.
`O=C1CCC(N2Cc3cc(OCCOCCOCCOc4ccc(Oc5c(-c6ccc(Br)cc6)sc6cc(O)ccc56)cc4)ccc3C2=O)C(=O)N1` (stereo not drawn) [Compound 39]: the IC50 was found to be 3.1 nM.

As to `O=C1CCC(N2C(=O)c3ccc(OCCCOCCOc4ccc(Oc5c(-c6ccc(Br)cc6)sc6cc(O)ccc56)cc4)cc3C2=O)C(=O)N1` (stereo not drawn) [Compound 76], the IC50 was 17 nM.

Consider `O=C1CCC(N2Cc3c(OCCN4CCN(CCOc5ccc(Oc6c(-c7ccc(Br)cc7)sc7cc(O)ccc67)cc5)CC4)cccc3C2=O)C(=O)N1` (stereo not drawn) [Compound 7], for which the IC50 stood at 1.1 nM.

`C[C@H](COc1ccc(Oc2c(-c3ccc(Br)cc3)sc3cc(O)ccc23)cc1)N1CCN(CCOc2cccc3c2CN(C2CCC(=O)NC2=O)C3=O)CC1` (stereo partly drawn) [Compound 13]: the IC50 turned out to be 1.3 nM.

On to `O=C1CCC(N2Cc3cc(OCCN4CCN(CCOc5ccc(Oc6c(-c7ccc(Br)cc7)sc7cc(O)ccc67)cc5)CC4)ccc3C2=O)C(=O)N1` (stereo not drawn) [Compound 30], for which the IC50 was found to be 1.3 nM.

For the compound `O=C1CCC(N2Cc3cc(OCCCOCCCOCCOc4ccc(Oc5c(-c6ccc(Br)cc6)sc6cc(O)ccc56)cc4)ccc3C2=O)C(=O)N1` (stereo not drawn) [Compound 45], the IC50 is 6.5 nM.

Consider `O=C1CCC(N2C(=O)c3cccc(NCCN4CCN(CCOc5ccc(Oc6c(-c7ccc(O)cc7)sc7cc(O)ccc67)cc5)CC4)c3C2=O)C(=O)N1` (stereo not drawn) [Compound 3], for which the IC50 was found to be 0.14 nM.

Regarding `O=C1CC[C@H](N2Cc3cc(OCCOC4CCN(CCOc5ccc(Oc6c(-c7ccc(Br)cc7)sc7cc(O)ccc67)cc5)CC4)ccc3C2=O)C(=O)N1` [Compound 44], the IC50 stood at 0.54 nM.

As for `C[C@H](COc1ccc(Oc2c(-c3ccc(Br)cc3)sc3cc(O)ccc23)cc1)N1CCN(CC(=O)NCc2ccc3c(c2)CN(C2CCC(=O)NC2=O)C3=O)CC1` (stereo partly drawn) [Compound 11, 2-{4-[(2R)-1-(4-{[2-(4-bromophenyl)-6-hydroxy-1-benzothiophen-3-yl]oxy}phenoxy)propan-2-yl]piperazin-1-yl}-N-{[2-(2,6-dioxopiperidin-3-yl)-1-oxo-2,3-dihydro-1H-isoindol-5-yl]methyl}acetamide], the IC50 is 2.6 nM.

For the compound `O=C1CCC(N2C(=O)c3ccc(N4CCN(CCCCCCOc5ccc(Oc6c(-c7ccc(Br)cc7)sc7cc(O)ccc67)cc5)CC4)cc3C2=O)C(=O)N1` (stereo not drawn) [Compound 51], the IC50 amounted to 26.2 nM.

For `O=C1CCC(N2Cc3c(OCCOc4ccc(Oc5c(-c6ccc(Br)cc6)sc6cc(O)ccc56)cc4)cccc3C2=O)C(=O)N1` (stereo not drawn) [Compound 28], the IC50 amounted to 2.7 nM.

For the compound `O=C1CCC(N2C(=O)c3ccc(OCCCOCCCOCCOc4ccc(Oc5c(-c6ccc(Br)cc6)sc6cc(O)ccc56)cc4)cc3C2=O)C(=O)N1` (stereo not drawn) [Compound 87], the IC50 turned out to be 21.5 nM.

On to `O=C1CCC(N2Cc3cc(OCCCOCCCOc4ccc(Oc5c(-c6ccc(Br)cc6)sc6cc(O)ccc56)cc4)ccc3C2=O)C(=O)N1` (stereo not drawn) [Compound 35], for which the half-maximal inhibitory concentration (IC50) turned out to be 9.9 nM.

`O=C1CC[C@H](N2Cc3cc(OCCN4CC5(CN(CCOc6ccc(Oc7c(-c8ccc(Br)cc8)sc8cc(O)ccc78)cc6)C5)C4)ccc3C2=O)C(=O)N1` [Compound 41]: the IC50 is 2.4 nM.

As to `O=C1CCC(N2C(=O)c3ccc(NCCCOCCOc4ccc(Oc5c(-c6ccc(Br)cc6)sc6cc(O)ccc56)cc4)cc3C2=O)C(=O)N1` (stereo not drawn) [Compound 81], the IC50 was 8.4 nM.

Take `O=C1CCC(N2Cc3cc(N4CCN(CCCCOc5ccc(Oc6c(-c7ccc(Br)cc7)sc7cc(O)ccc67)cc5)CC4)ccc3C2=O)C(=O)N1` (stereo not drawn) [Compound 58]: the IC50 amounted to 6.6 nM.

In the case of `O=C1CCC(N2C(=O)c3cccc(NCCOc4ccc(Oc5c(-c6ccc(Br)cc6)sc6cc(O)ccc56)cc4)c3C2=O)C(=O)N1` (stereo not drawn) [Compound 32], the IC50 turned out to be 8.2 nM.

On to `O=C1CCC(N2C(=O)c3ccc(NCCCOCCOCCOc4ccc(Oc5c(-c6ccc(Br)cc6)sc6cc(O)ccc56)cc4)cc3C2=O)C(=O)N1` (stereo not drawn) [Compound 83], for which the IC50 was 44.9 nM.

For `O=C1CCC(N2Cc3cc(OCCCOCCCOCCCOc4ccc(Oc5c(-c6ccc(Br)cc6)sc6cc(O)ccc56)cc4)ccc3C2=O)C(=O)N1` (stereo not drawn) [Compound 36], the IC50 came out at 4.7 nM.

As for `O=C1CCC(N2Cc3cc(OCCCOCCOc4ccc(Oc5c(-c6ccc(Br)cc6)sc6cc(O)ccc56)cc4)ccc3C2=O)C(=O)N1` (stereo not drawn) [Compound 40], the IC50 worked out at 3.9 nM.

`O=C1CCC(N2C(=O)c3ccc(NCCOCCOCCOc4ccc(Oc5c(-c6ccc(Br)cc6)sc6cc(O)ccc56)cc4)cc3C2=O)C(=O)N1` (stereo not drawn) [Compound 67]: the IC50 was 11.4 nM.

Turning to `O=C1CCC(N2Cc3c(NCCOCCOCCOc4ccc(Oc5c(-c6ccc(Br)cc6)sc6cc(O)ccc56)cc4)cccc3C2=O)C(=O)N1` (stereo not drawn) [Compound 24], the IC50 is 16.8 nM.

Turning to `O=C1CCC(N2Cc3cc(NCCCOCCOc4ccc(Oc5c(-c6ccc(Br)cc6)sc6cc(O)ccc56)cc4)ccc3C2=O)C(=O)N1` (stereo not drawn) [Compound 85], the IC50 is 6 nM.

The same experiment, now with this note: 10% FBS, 24 hours, Table 2 VHL centric PROTACs, read-out: IC50.
For `Cc1ncsc1-c1ccc(CNC(=O)[C@@H]2C[C@@H](O)CN2C(=O)[C@@H](NC(=O)CCC(=O)N2CC3CN(CCOc4ccc(Oc5c(-c6ccc(F)cc6)sc6cc(O)ccc56)cc4)CC3C2)C(C)(C)C)cc1` (stereo partly drawn) [Compound 115], the IC50 was over 100 nM.

Consider `Cc1ncsc1-c1ccc(CNC(=O)[C@@H]2C[C@@H](O)CN2C(=O)[C@@H](NC(=O)COCCO[C@@H]2CCN(CCOc3ccc(Oc4c(-c5ccc(F)cc5)sc5cc(O)ccc45)cc3)C2)C(C)(C)C)cc1` [Compound 116], for which the IC50 is 3 nM.

As for `COc1ccc2c(Oc3ccc(OCCN4CCN(CCOCC(=O)N[C@H](C(=O)N5C[C@H](O)C[C@H]5C(=O)NCc5ccc(-c6scnc6C)cc5)C(C)(C)C)CC4)cc3)c(-c3ccc(Br)cc3)sc2c1` [Compound 154], the IC50 is over 100 nM.

In the case of `C[C@H](NC(=O)[C@@H]1C[C@@H](O)CN1C(=O)[C@@H](NC(=O)COCCOCCN1CCC(c2ccc(Oc3c(-c4ccc(F)cc4)sc4cc(O)ccc34)cc2)CC1)C(C)(C)C)c1ccc(Cl)cc1` [Compound 148], the IC50 was over 100 nM.

Take `COc1ccc2c(Oc3ccc(OCCN4CCN(CCOCC(=O)N[C@H](C(=O)N5CCC[C@H]5C(=O)NCc5ccc(-c6scnc6C)cc5)C(C)(C)C)CC4)cc3)c(-c3ccc(Br)cc3)sc2c1` [Compound 157]: the IC50 was over 100 nM.

`CC(C)(C)[C@H](NC(=O)COCCOCCN1CCC(c2ccc(Oc3c(-c4ccc(F)cc4)sc4cc(O)ccc34)cc2)CC1)C(=O)N1C[C@H](O)C[C@H]1C(=O)NCc1ccc(C#N)cc1` [Compound 143]: the IC50 came to 32 nM.

For the compound `Cc1ncoc1-c1ccc([C@H](C)NC(=O)[C@@H]2C[C@@H](O)CN2C(=O)[C@@H](NC(=O)COCCOCCOCCOc2ccc(Oc3c(-c4ccc(Cl)cc4)sc4cc(O)ccc34)cc2)C(C)(C)C)cc1` [Compound 120], the IC50 came out at 4.1 nM.

Take `Cc1ncsc1-c1ccc([C@H](C)NC(=O)[C@@H]2C[C@@H](O)CN2C(=O)[C@@H](NC(=O)COCCOCCCOc2ccc(Oc3c(-c4ccc(F)cc4)sc4cc(O)ccc34)cc2)C(C)(C)C)cc1` [Compound 113, (2S,4R)-1-((S)-2-(2-(2-(3-(4-(2-(4-fluorophenyl)-6-hydroxybenzo[b]thiophen-3-yloxy)phenoxy)propoxy)ethoxy)acetamido)-3,3-dimethylbutanoyl)-4-hydroxy-N—((S)-1-(4-(4-methylthiazol-5-yl)phenyl)ethyl)pyrrolidine-2-carboxamide]: the IC50 came to 23.7 nM.

The same experiment, now with this note: 10% FBS, 24 hours, Table 3 cereblon centric PROTACs, read-out: ER-α Luciferase IC50.
`O=C1CCC(N2Cc3c(cc(F)c(N4CCN(C5CCN(CCOc6ccc(Oc7c(-c8ccc(C(F)(F)F)cc8)sc8cc(O)ccc78)cc6)CC5)CC4)c3F)C2=O)C(=O)N1` (stereo not drawn) [Compound 203]: the IC50 came out at 4.7 nM.

Take `O=C1CCC(N2Cc3cc(N4CCN(CCCOc5ccc(Oc6c(-c7ccc(C(F)(F)F)cc7)sc7cc(O)ccc67)cc5)CC4)ccc3C2=O)C(=O)N1` (stereo not drawn) [Compound 207]: the IC50 turned out to be 11.4 nM.

Take `O=C1CCC(N2C(=O)c3ccc(OCCCOCCCOCCCCOc4ccc(Oc5c(-c6ccc(Br)cc6)sc6cc(O)ccc56)cc4)cc3C2=O)C(=O)N1` (stereo not drawn) [Compound 175]: the IC50 is 66.7 nM.

In the case of `O=C1CCC(N2C(=O)c3ccc(NCCCOCCCOCCCCOc4ccc(Oc5c(-c6ccc(Br)cc6)sc6cc(O)ccc56)cc4)cc3C2=O)C(=O)N1` (stereo not drawn) [Compound 176], the IC50 was 28.7 nM.

Take `O=C1CCC(N2Cc3cc(N4CCN(CCOc5ccc(Oc6c(-c7ccc(Br)cc7)sc7cc(O)ccc67)cc5)CC4)ccc3C2=O)C(=O)N1` (stereo not drawn) [Compound 210]: the IC50 was 2.3 nM.

Values taken from patent publication US11384063B2, “Modulators of estrogen receptor proteolysis and associated methods of use” (Arvinas Operations, Inc., priority 2017, dated 2022).
